Patent publication US10981894B2, “Melanocortin subtype-2 receptor (MC2R) antagonists and uses thereof” (Crinetics Pharmaceuticals, Inc., priority 2018, dated 2021)

Biological target: hMC2 receptor (Homo sapiens, UniProt Q01718)
Experiment: hMC2 membrane binding assay ([125I]ACTH (1-39) Tyr23, SPA)
Parameters: scale not given here
Details: crude hMC2R membranes from CRE-bla-CHO-K1 cells expressing hMC2 receptor and hMRAP; [125I]ACTH (1-39) Tyr23 0.2 nM; 1.5 hours at room temperature; read-out: MC2R binding potency
Outline: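 CRE-bla-CHO-K1 membranes co-expressing hMC2 receptor and hMRAP, preincubated with WGA PVT SPA beads in pH 7.4 HEPES/MgCl2/CaCl2/0.2% BSA buffer. Compounds (typically 0–10,000 nM final) compete with 0.2 nM [125I]ACTH(1-39) Tyr23 for 1.5 h at room temperature. SPA counts give Ki by non-linear regression.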

hMC2 receptor, sequence (Q01718 whole entry): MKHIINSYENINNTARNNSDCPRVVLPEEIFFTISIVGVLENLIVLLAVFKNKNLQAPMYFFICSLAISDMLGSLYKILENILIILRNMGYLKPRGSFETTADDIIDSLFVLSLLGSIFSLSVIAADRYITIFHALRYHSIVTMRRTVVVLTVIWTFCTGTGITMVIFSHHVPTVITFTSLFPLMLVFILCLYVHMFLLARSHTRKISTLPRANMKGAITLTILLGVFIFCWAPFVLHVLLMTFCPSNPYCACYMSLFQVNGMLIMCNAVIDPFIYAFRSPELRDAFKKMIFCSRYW
hMC2 receptor, sequence (Q8TCY5 whole entry partner): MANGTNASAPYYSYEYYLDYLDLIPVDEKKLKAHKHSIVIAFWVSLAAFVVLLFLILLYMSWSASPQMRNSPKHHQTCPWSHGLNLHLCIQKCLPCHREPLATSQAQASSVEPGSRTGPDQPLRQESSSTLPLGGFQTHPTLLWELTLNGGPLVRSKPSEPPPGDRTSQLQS

`CCOc1ncccc1-c1ccc(N2CCN(C(=O)c3ccc(OC)cc3C(F)(F)F)C[C@H]2CC)c(C(=O)NC2CNC2)c1F` [Compound 1-202, N-(azetidin-3-yl)-3-(2-ethoxypyridin-3-yl)-6-[(2R)-2-ethyl-4-[4-methoxy-2-(trifluoromethyl)benzoyl]piperazin-1-yl]-2-fluorobenzamide] and `CCOc1ncccc1-c1ccc(N2CCN(C(=O)c3ccc(F)cc3C(F)F)C[C@H]2CC)c(C(=O)N[C@@H]2CCNC2)c1F` [Compound 1-189, 6-[(2R)-4-[2-(difluoromethyl)-4-fluorobenzoyl]-2-ethylpiperazin-1-yl]-3-(2-ethoxypyridin-3-yl)-2-fluoro-N-[(3R)-pyrrolidin-3-yl]benzamide] cannot be ordered by Ki: less than 0.01 µM for the first, less than 0.01 µM for the second.

`CCOc1ncccc1-c1ccc(N2CCN(C(=O)c3ccc(OC)nc3C(F)(F)F)C[C@H]2CC)c(C(=O)N[C@H]2CN(C)C[C@H]2F)n1` [Compound 1-296, 2′-ethoxy-5-[(2R)-2-ethyl-4-[6-methoxy-2-(trifluoromethyl)pyridine-3-carbonyl]piperazin-1-yl]-N-[(3S,4R)-4-fluoro-1-methylpyrrolidin-3-yl]-[2,3′-bipyridine]-6-carboxamide] and `CCOc1ncccc1-c1ccc(N2CCN(C(=O)c3ccc(OC)nc3C(F)(F)F)C[C@H]2CC)c(C(=O)N[C@@H]2CCN(C)C2)n1` [Compound 1-239, 2′-ethoxy-5-[(2R)-2-ethyl-4-[6-methoxy-2-(trifluoromethyl)pyridine-3-carbonyl]piperazin-1-yl]-N-[(3R)-1-methylpyrrolidin-3-yl]-[2,3′-bipyridine]-6-carboxamide] cannot be ordered by Ki: less than 0.01 µM for the first, less than 0.01 µM for the second.

`CC[C@@H]1CN(C(=O)c2ccc(C(F)(F)F)cc2Cl)CCN1c1ccc(-c2ccccc2C#N)cc1C(=O)NCCN` [Compound 1-7, N-(2-aminoethyl)-4-[(2R)-4-[2-chloro-4-(trifluoromethyl)benzoyl]-2-ethylpiperazin-1-yl]-2′-cyano-[1,1′-biphenyl]-3-carboxamide] and `CC[C@@H]1CN(C(=O)c2ccc(C(F)(F)F)cc2Cl)CCN1c1ccc(-c2ccccc2C(=O)NC)cc1C(=O)NCCN` [Compound 1-20, (R)-N3′-(2-aminoethyl)-4′-(4-(2-chloro-4-(trifluoromethyl)benzoyl)-2-ethylpiperazin-1-yl)-N2-methyl-[1,1′-biphenyl]-2,3′-dicarboxamide] fall in the same range of Ki: 0.01 to 0.1 µM for the first, 0.01 to 0.1 µM for the second.

`CCOc1ncccc1-c1ccc(N2CCN(C(=O)c3ccc(Cl)cc3Cl)C[C@H]2CC)c(C(=O)NCCNC)c1F` [Compound 1-156, 6-[(2R)-4-(2,4-dichlorobenzoyl)-2-ethylpiperazin-1-yl]-3-(2-ethoxypyridin-3-yl)-2-fluoro-N-[2-(methylamino)ethyl]benzamide] and `CCOc1ncccc1-c1ccc(N2CCN(C(=O)c3ccc(F)cc3Cl)C[C@H]2CC)c(C(=O)NCCNC)c1F` [Compound 1-96, 6-[(2R)-4-(2-chloro-4-fluorobenzoyl)-2-ethylpiperazin-1-yl]-3-(2-ethoxypyridin-3-yl)-2-fluoro-N-[2-(methylamino)ethyl]benzamide] cannot be ordered by Ki: less than 0.01 µM for the first, less than 0.01 µM for the second.

`CCOc1ncccc1-c1ccc(N2CCN(C(=O)N3CCC[C@H]3c3cccc(F)c3)C[C@H]2CC)c(C(=O)N[C@@H]2CCN(C)C2)n1` [Compound 1-381, 2′-ethoxy-5-[(2R)-2-ethyl-4-[(2S)-2-(3-fluorophenyl)pyrrolidine-1-carbonyl]piperazin-1-yl]-N-[(3R)-1-methylpyrrolidin-3-yl]-[2,3′-bipyridine]-6-carboxamide] and `CCOc1ncccc1-c1ccc(N2CCN(C(=O)n3ccc4cccc(Cl)c43)C[C@H]2CC)c(C(=O)N[C@@H]2CCN(C)C2)n1` [Compound 1-428, 5-[(2R)-4-(7-chloro-1H-indole-1-carbonyl)-2-ethylpiperazin-1-yl]-2′-ethoxy-N-[(3R)-1-methylpyrrolidin-3-yl]-[2,3′-bipyridine]-6-carboxamide] cannot be ordered by Ki: less than 0.01 µM for the first, less than 0.01 µM for the second.

`CCOc1ncccc1-c1ccc(N2CCN(C(=O)c3ccc(Cl)cc3C(F)(F)F)C[C@H]2CC)c(C(=O)NCCN(C)C)c1` [Compound 1-47, 2-[(2R)-4-[4-chloro-2-(trifluoromethyl)benzoyl]-2-ethylpiperazin-1-yl]-N-[2-(dimethylamino)ethyl]-5-(2-ethoxypyridin-3-yl)benzamide] and `CC[C@@H]1CN(C(=O)c2ccc(Cl)cc2C(F)(F)F)CCN1c1ccc(-c2cccnc2OC)cc1C(=O)NCCN` [Compound 1-71, N-(2-aminoethyl)-2-[(2R)-4-[4-chloro-2-(trifluoromethyl)benzoyl]-2-ethylpiperazin-1-yl]-5-(2-methoxypyridin-3-yl)benzamide] cannot be ordered by Ki: less than 0.01 µM for the first, less than 0.01 µM for the second.

`CCOc1ncccc1-c1ccc(N2CCN(C(=O)c3ccc(Cl)cc3C(F)(F)F)C[C@H]2CC)c(C(=O)NC[C@@H]2CCN2)c1` [Compound 1-97, N-{[(2S)-azetidin-2-yl]methyl}-2-[(2R)-4-[4-chloro-2-(trifluoromethyl)benzoyl]-2-ethylpiperazin-1-yl]-5-(2-ethoxypyridin-3-yl)benzamide] and `CCOc1ncccc1-c1ccc(N2CCN(C(=O)c3ccc(Cl)cc3C(F)(F)F)C[C@H]2CC)c(C(=O)N[C@@H]2CCCNC2)c1` [Compound 1-99, 2-[(2R)-4-[4-chloro-2-(trifluoromethyl)benzoyl]-2-ethylpiperazin-1-yl]-5-(2-ethoxypyridin-3-yl)-N-[(3R)-piperidin-3-yl]benzamide] cannot be ordered by Ki: less than 0.01 µM for the first, less than 0.01 µM for the second.

`CCOc1ncccc1-c1ccc(N2CCN(C(=O)c3ccc(F)cc3N3CC[C@H](NC)C3)C[C@H]2CC)c(C(=O)N[C@@H]2CCNC2)c1` [Compound 1-101, 5-(2-ethoxypyridin-3-yl)-2-[(2R)-2-ethyl-4-{4-fluoro-2-[(3S)-3-(methylamino)pyrrolidin-1-yl]benzoyl}piperazin-1-yl]-N-[(3R)-pyrrolidin-3-yl]benzamide] and `CCOc1ncccc1-c1ccc(N2CCN(C(=O)c3ccc(F)cc3C(F)(F)F)C[C@H]2CC)c(C(=O)N[C@@H]2CCN(C)C2)n1` [Compound 1-258, 2′-ethoxy-5-[(2R)-2-ethyl-4-[4-fluoro-2-(trifluoromethyl)benzoyl]piperazin-1-yl]-N-[(3R)-1-methylpyrrolidin-3-yl]-[2,3′-bipyridine]-6-carboxamide] cannot be ordered by Ki: less than 0.01 µM for the first, less than 0.01 µM for the second.

`CCOc1ccccc1-c1ccc(N2CCN(C(=O)N3CCC[C@H]3C(C)(C)F)C[C@H]2CC)c(C(=O)N[C@@H]2CCN(C)C2)n1` [Compound 1-412, 6-(2-ethoxyphenyl)-3-[(2R)-2-ethyl-4-[(2S)-2-(2-fluoropropan-2-yl)pyrrolidine-1-carbonyl]piperazin-1-yl]-N-[(3R)-1-methylpyrrolidin-3-yl]pyridine-2-carboxamide] and `CCOc1ccccc1-c1ccc(N2CCN(C(=O)N3CCC[C@H]3C(F)(F)F)C[C@H]2CC)c(C(=O)N[C@H]2CCN(C)C2)n1` [Compound 1-375, 6-(2-ethoxyphenyl)-3-[(2R)-2-ethyl-4-[(2S)-2-(trifluoromethyl)pyrrolidine-1-carbonyl]piperazin-1-yl]-N-[(3S)-1-methylpyrrolidin-3-yl]pyridine-2-carboxamide] cannot be ordered by Ki: less than 0.01 µM for the first, less than 0.01 µM for the second.

`CCOc1ncccc1-c1ccc(N2CCN(C(=O)c3ccc(F)cc3C(F)(F)F)C[C@H]2CC)c(C(=O)NCCc2ncc[nH]2)n1` [Compound 1-224, 2′-ethoxy-5-[(2R)-2-ethyl-4-[4-fluoro-2-(trifluoromethyl)benzoyl]piperazin-1-yl]-N-[2-(1H-imidazol-2-yl)ethyl]-[2,3′-bipyridine]-6-carboxamide] and `CCOc1ccccc1-c1ccc(N2CCN(C(=O)c3ccc(Cl)cc3C(F)(F)F)C[C@H]2CC)c(C(=O)NCCN)c1` [Compound 1-25, N-(2-aminoethyl)-4-[(2R)-4-[4-chloro-2-(trifluoromethyl)benzoyl]-2-ethylpiperazin-1-yl]-2′-ethoxy-[1,1′-biphenyl]-3-carboxamide] cannot be ordered by Ki: less than 0.01 µM for the first, less than 0.01 µM for the second.

`CCOc1ncccc1-c1ccc(N2CCN(C(=O)c3ccc(Cl)cc3C(F)F)C[C@H]2CC)c(C(=O)N[C@@H]2CCN(C)C2)n1` [Compound 1-262, 5-[(2R)-4-[4-chloro-2-(difluoromethyl)benzoyl]-2-ethylpiperazin-1-yl]-2′-ethoxy-N-[(3R)-1-methylpyrrolidin-3-yl]-[2,3′-bipyridine]-6-carboxamide] and `CCOc1ncccc1-c1ccc(N2CCN(C(=O)OC(C(C)(C)C)C(F)(F)F)C[C@H]2CC)c(C(=O)N[C@@H]2CCN(C)C2)n1` (stereo partly drawn) [Compound 1-376, 1,1,1-trifluoro-3,3-dimethylbutan-2-yl (3R)-4-(2′-ethoxy-6-{[(3R)-1-methylpyrrolidin-3-yl]carbamoyl}-[2,3′-bipyridin]-5-yl)-3-ethylpiperazine-1-carboxylate] cannot be ordered by Ki: less than 0.01 µM for the first, less than 0.01 µM for the second.

`CCOc1ccccc1-c1ccc(N2CCN(C(=O)N3CCc4cc(F)cc(C#N)c43)C[C@H]2CC)c(C(=O)N[C@H]2CCN(C)C2)n1` [Compound 1-426, 3-[(2R)-4-(7-cyano-5-fluoro-2,3-dihydro-1H-indole-1-carbonyl)-2-ethylpiperazin-1-yl]-6-(2-ethoxyphenyl)-N-[(3S)-1-methylpyrrolidin-3-yl]pyridine-2-carboxamide] and `CCOc1ccccc1-c1ccc(N2CCN(C(=O)N3CCCC[C@H]3C(F)(F)F)C[C@H]2CC)c(C(=O)N[C@@H]2CCN(C)C2)n1` [Compound 1-433, 6-(2-ethoxyphenyl)-3-[(2R)-2-ethyl-4-[(2S)-2-(trifluoromethyl)piperidine-1-carbonyl]piperazin-1-yl]-N-[(3R)-1-methylpyrrolidin-3-yl]pyridine-2-carboxamide] cannot be ordered by Ki: less than 0.01 µM for the first, less than 0.01 µM for the second.

`CCOc1ncccc1-c1ccc(N2CCN(C(=O)C3(C(F)(F)F)CCCC3)C[C@H]2CC)c(C(=O)NCC2(OC)CN(C)C2)n1` [Compound 1-334, 2′-ethoxy-5-[(2R)-2-ethyl-4-[1-(trifluoromethyl)cyclopentanecarbonyl]piperazin-1-yl]-N-[(3-methoxy-1-methylazetidin-3-yl)methyl]-[2,3′-bipyridine]-6-carboxamide] gave a Ki of less than 0.01 µM.
